Measured values: article PMC12589998, “Development and validation of a UHPLC-QqQ-MS/MS method for simultaneous determination of fifteen major components from Oroxyli seed extract in rat plasma and its application in the pharmacokinetic study” (Frontiers in Pharmacology, 2025)
“Also recorded” adds a separate entry of the source. Where two headings read alike, the source gives them in different places.

Key:
[1] = Stability of the analytes in rat plasma samples under storage conditions; format: physicochemical; details: n = 6
Experimental: The bioanalytical method validation was evaluated for specificity, linearity, sensitivity, precision and accuracy, recovery, matrix effect, and stability to ensure compliance with the U.S. Food and Drug Administration (FDA) guidance on precise quantitative analysis ([Center for Drug Evaluation and Research of the U.S., 2018]). The assessment of specificity was conducted by comparing the chromatograms obtained from blank plasma, blank plasma spiked with the target components, and samples gathered following the oral administration of OS extract. Calibration curves were constructed by plotting the ratio for the peak area of the analyte to IS versus the concentration, with 1/x^2 serving as the weighting factor. The lower limit of quantification (LLOQ) was defined as the concentration at which a signal to noise ratio of […] 10 was achievable. The evaluation of precision and accuracy involved the analysis of six QC samples, both within a single day and over 3 consecutive days. Accuracy was expressed as the relative error (RE), whereas precision was gauged via relative standard deviation (RSD). Extraction recovery was ascertained by juxtaposing the responses of analytes in extracted samples against those in samples that were spiked post-extraction. The matrix effect was scrutinized by determining the ratio of the responses of the analytes in post-extraction spiked samples to those in the mixed standard solution. The stability of the analytes in plasma samples was explored under diverse conditions: encompassing a 12-h period in an autosampler, a 4-h interval at room temperature, three cycles of freezing–thawing, and a 7-day duration at −80 °C.
The retention times of the analyte peaks were consistent with those in the spiked samples. […] The LLOQs for chrysin, chrysin-7-O-β-D-glucuronide, hispidulin, wogonoside, quercetin, quercetin-7-O-β-D-glucoside, baicalin, baicalein, acacetin, oroxin A, oroxin B, oroxylin A, oroxylin A-7-O-β-D-glucuronide, apigenin, and scutellarein were 1.0, 2.0, 1.0, 0.3, 1.0, 0.1, 9.0, 6.0, 0.3, 6.0, 4.0, 1.0, 2.0, 0.5, and 0.3 ng/mL, respectively. In Supplementary Table S2, the RE for accuracy is between −13.77% and 12.55%, and the RSD for precision is below 14.55% (both intra- and inter-day). […] The matrix effect varied from 60.15% to 115.53%, with RSD values below 10.54%. In Supplementary Table S4, the RSD values for stability of the analytes are found to be lower than 13.98%, meaning that these components were stable under the following conditions: encompassing a 12-h period in an autosampler, a 4-h interval at room temperature, three cycles of freezing and thawing, and a 7-day duration at −80 °C.

[2] = Pharmacokinetic study in rats after oral administration of OS extract (UHPLC-QqQ-MS/MS of plasma); format: in vivo, rat
Experimental: The UHPLC-QqQ-MS/MS system consisted of a 1290 UHPLC and a 6470 mass spectrometer (Agilent Technologies). Chromatographic separation was realized on utilizing an ACQUITY UPLC BEH C18 column (2.1 × 100 mm, 1.7 μm) maintained at 35 °C. The mobile phase consisting of 0.1% formic acid in water (A) and acetonitrile (B) was utilized with the elution program set at 0 min–1 min, 5% B–30% B; 1 min–4 min, 30% B– 50% B; 4 min–8 min, and 50% B–90% B. The injection volume was 5 μL, and the flow rate was 0.3 mL/min. The mass spectrometry parameters in the negative ion mode, gas temperature, flow rate, and nebulizer pressure were 300 °C, 7 L/min, and 35 psi, respectively. The mass spectra properties of the 15 analytes and the IS are illustrated in Table 1.
To 100 μL of the plasma sample, 20 μL of methanol, 20 μL of IS solution (methylparaben, 1 μg/mL), and 5 μL of formic acid were added and vortexed for a duration of 2 min. Subsequently, the mixture underwent extraction with 800 μL of acetonitrile for 3 min. Following 10 min of centrifugation at 12,000 g, the supernatant was collected and evaporated to dryness under N2 to obtain the residue. Finally, the residue was reconstituted in 50% methanol (100 μL) and utilized for analysis.
Before initiating the study, six male SD rats underwent a 12-h fasting period, during which they were granted unrestricted access to water. Then, the rats were administered an oral dose of 3 g/kg of the OS extract, which had been dissolved in 0.5% CMC-Na aqueous solution. Blood samples, approximately 200 μL each, were collected at various time points: before administration and at 0.03, 0.08, 0.17, 0.25, 0.5, 0.75, 1, 2, 4, 6, 8, 10, 12, 24, 36, and 48 h post-administration. Following 10 min of centrifugation at 6,000 g, the resultant samples were stored at −80 °C.
The developed method was effectively applied to study the pharmacokinetics in rats following oral administration of the OS extract. […] This was likely due to their low concentrations in the OS extract. Ultimately, nine components (chrysin, chrysin-7-O-β-D-glucuronide, baicalin, baicalein, oroxin A, oroxin B, oroxylin A, oroxylin A-7-O-β-D-glucuronide, and scutellarein) were successfully fitted with pharmacokinetic parameters. The average plasma concentration–time profiles of these substances are depicted in Figure 3. […] All data were presented as the mean ± standard deviation (Mean ± SD).

[3] = spiked concentration 2000 ng/mL
[4] = spiked concentration 32000 ng/mL
[5] = male, SD, 3 g/kg, rat plasma collected 0.5 h after oral administration of the OS extract, read-out: Concentration printed in MRM chromatogram of plasma sample (Figure 2C)
[6] = male, rat plasma, oral 3 g/kg OS extract, n = 6, mean ± SD, read-out: Tmax
[7] = rat plasma after oral OS extract
[8] = spiked concentration 1600 ng/mL
[9] = male, SD, rat, in vivo, po, 3 g/kg

| Compound | concentration at 0.5 h [2, 5] [ng/mL] | Tmax [2, 6] [h] | Measured, -80°C for 7 days ([1]; spiked concentration 2 ng/mL) [ng/mL] | Measured, Autosampler for 12 h ([1]; spiked concentration 2 ng/mL) [ng/mL] | Measured, Room temperature for 4 h ([1]; spiked concentration 2 ng/mL) [ng/mL] | Measured, Three freeze-thaw cycles ([1]; spiked concentration 2 ng/mL) [ng/mL] | Measured, -80°C for 7 days ([1]; spiked concentration 20 ng/mL) [ng/mL] | Measured, Autosampler for 12 h ([1]; spiked concentration 20 ng/mL) [ng/mL] | Measured, Room temperature for 4 h ([1]; spiked concentration 20 ng/mL) [ng/mL] | Measured, Three freeze-thaw cycles ([1]; spiked concentration 20 ng/mL) [ng/mL] | Measured, -80°C for 7 days ([1]; spiked concentration 320 ng/mL) [ng/mL] | Measured, Autosampler for 12 h ([1]; spiked concentration 320 ng/mL) [ng/mL] | Measured, Room temperature for 4 h ([1]; spiked concentration 320 ng/mL) [ng/mL] | Measured, Three freeze-thaw cycles ([1]; spiked concentration 320 ng/mL) [ng/mL] | Plasma levels [2, 7] | concentration at 0.5 h ([2]; male, SD, rat, in vivo, po) [ng/mL] | also measured |
| --- | --- | --- | --- | --- | --- | --- | --- | --- | --- | --- | --- | --- | --- | --- | --- | --- | --- |
| O=C(O)[C@H]1O[C@@H](Oc2cc3oc(-c4ccccc4)cc(=O)c3c(O)c2O)[C@H](O)[C@@H](O)[C@@H]1O [Baicalin, baicalin] | 10400 | 0.67 ± 0.13 |  |  |  |  |  |  |  |  |  |  |  |  |  |  | Measured, -80°C for 7 days ([1]; spiked concentration 200 ng/mL): 196.55 ± 6.22 ng/mL; Measured, Autosampler for 12 h ([1]; spiked concentration 200 ng/mL): 197.37 ± 12.83 ng/mL; Measured, Room temperature for 4 h ([1]; spiked concentration 200 ng/mL): 197.18 ± 11.27 ng/mL; Measured, Three freeze-thaw cycles ([1]; spiked concentration 200 ng/mL): 191.59 ± 7.20 ng/mL; Measured, -80°C for 7 days [1, 3]: 2100.51 ± 51.69 ng/mL; Measured, Autosampler for 12 h [1, 3]: 1919.30 ± 46.13 ng/mL; Measured, Room temperature for 4 h [1, 3]: 2105.21 ± 73.11 ng/mL; Measured, Three freeze-thaw cycles [1, 3]: 1965.30 ± 64.97 ng/mL; Measured, -80°C for 7 days [1, 4]: 34521.83 ± 3366.83 ng/mL; Measured, Autosampler for 12 h [1, 4]: 31375.83 ± 425.60 ng/mL; Measured, Room temperature for 4 h [1, 4]: 30814.68 ± 1603.40 ng/mL; Measured, Three freeze-thaw cycles [1, 4]: 32953.20 ± 2649.23 ng/mL; AUC(0-t) ([2]; male, rat plasma, oral 3 g/kg OS extract, n = 6, mean ± SD, read-out: AUC(0-t)): 257 µg·h/mL; AUC(0-inf) ([2]; male, rat plasma, oral 3 g/kg OS extract, n = 6, mean ± SD, read-out: AUC(0-∞)): 264 µg·h/mL; Cmax ([2]; male, rat plasma, oral 3 g/kg OS extract, n = 6, mean ± SD, read-out: Cmax): 13400 ng/mL; half-life ([2]; male, rat plasma, oral 3 g/kg OS extract, n = 6, mean ± SD, read-out: T1/2 (converted)): 9.14 ± 1.15 h; Shape of plasma concentration-time curve [2, 7]: significant bimodal phenomena; also recorded: clear bimodal phenomena; AUC(0-t) ([2]; rat plasma, oral 3 g/kg OS extract, n = 6, mean ± SD): significantly higher than that of the others |
| COc1c(O[C@@H]2O[C@H](C(=O)O)[C@@H](O)[C@H](O)[C@H]2O)cc(O)c2c(=O)cc(-c3ccccc3)oc12 [Wogonoside, wogonoside] | 11 |  | 1.78 ± 0.17 | 2.07 ± 0.26 | 1.82 ± 0.14 | 1.86 ± 0.09 | 22.33 ± 0.89 | 22.77 ± 1.13 | 19.87 ± 0.76 | 18.01 ± 1.31 | 287.53 ± 32.71 | 307.85 ± 37.80 | 327.84 ± 23.82 | 310.87 ± 20.44 | too weak to obtain comprehensive pharmacokinetic curves |  |  |
| O=c1cc(-c2ccc(O)cc2)oc2cc(O)cc(O)c12 [Apigenin, apigenin] |  |  | 1.93 ± 0.09 | 2.00 ± 0.16 | 2.23 ± 0.11 | 2.07 ± 0.13 | 20.16 ± 2.35 | 20.39 ± 1.55 | 18.37 ± 0.87 | 18.24 ± 1.16 | 288.58 ± 21.30 | 316.15 ± 18.09 | 310.13 ± 19.51 | 306.45 ± 18.15 |  | 45 | Plasma levels ([2]; rat, in vivo, po): too weak to obtain comprehensive pharmacokinetic curves |
| COc1c(O)cc2oc(-c3ccccc3)cc(=O)c2c1O [Oroxylin A, oroxylin A] |  |  |  |  |  |  |  |  |  |  |  |  |  |  |  | 165 | Measured, -80°C for 7 days ([1]; spiked concentration 10 ng/mL): 10.45 ± 0.29 ng/mL; Measured, Autosampler for 12 h ([1]; spiked concentration 10 ng/mL): 10.51 ± 1.15 ng/mL; Measured, Room temperature for 4 h ([1]; spiked concentration 10 ng/mL): 10.16 ± 0.90 ng/mL; Measured, Three freeze-thaw cycles ([1]; spiked concentration 10 ng/mL): 10.69 ± 0.70 ng/mL; Measured, -80°C for 7 days ([1]; spiked concentration 100 ng/mL): 92.00 ± 7.39 ng/mL; Measured, Autosampler for 12 h ([1]; spiked concentration 100 ng/mL): 90.43 ± 9.04 ng/mL; Measured, Room temperature for 4 h ([1]; spiked concentration 100 ng/mL): 92.23 ± 5.62 ng/mL; Measured, Three freeze-thaw cycles ([1]; spiked concentration 100 ng/mL): 88.86 ± 4.67 ng/mL; Measured, -80°C for 7 days [1, 8]: 1720.89 ± 130.14 ng/mL; Measured, Autosampler for 12 h [1, 8]: 1797.17 ± 87.55 ng/mL; Measured, Room temperature for 4 h [1, 8]: 1790.22 ± 78.72 ng/mL; Measured, Three freeze-thaw cycles [1, 8]: 1733.57 ± 149.41 ng/mL; AUC(0-inf) [2, 9]: 3.01 µg·h/mL; AUC(0-t) [2, 9]: 2.84 µg·h/mL; Cmax [2, 9]: 512 ± 179 ng/mL; Tmax [2, 9]: 0.25 ± 0.00 h; half-life [2, 9]: 7.7 ± 0.97 h |
| O=c1c(O)c(-c2ccc(O)c(O)c2)oc2cc(O)cc(O)c12 [Quercetin, quercetin] | 26 | ~10 | 1.81 ± 0.12 | 1.90 ± 0.21 | 1.80 ± 0.22 | 1.80 ± 0.09 | 17.37 ± 0.79 | 17.83 ± 1.42 | 19.06 ± 1.54 | 20.46 ± 0.77 | 285.05 ± 20.53 | 325.17 ± 28.70 | 298.43 ± 22.04 | 288.07 ± 26.80 | too weak to obtain comprehensive pharmacokinetic curves |  |  |
